According to PubChem BioAssay (NCI):
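Compound exposure: 48 hours, 5 concentrations, 96-well plates. The concentration for 50% growth inhibition is given as GI50. TGI is the concentration that stops growth completely.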

How the values were obtained:
Assay in all cases: NCI anticancer screen, dose series, 48 h
NCI-H226 lung = system: NCI-H226 lung
NCI-H23 lung = system: NCI-H23 lung
NCI-H460 lung = system: NCI-H460 lung
NCI-H522 lung = system: NCI-H522 lung
NCI/ADR-RES ovarian = system: NCI/ADR-RES ovarian
OVCAR-3 ovarian = system: OVCAR-3 ovarian
OVCAR-4 ovarian = system: OVCAR-4 ovarian
OVCAR-5 ovarian = system: OVCAR-5 ovarian
OVCAR-8 ovarian = system: OVCAR-8 ovarian
PC-3 prostate = system: PC-3 prostate
RPMI-8226 leukemia = system: RPMI-8226 leukemia
RXF 393 renal = system: RXF 393 renal
SF-268 CNS = system: SF-268 CNS
SF-295 CNS = system: SF-295 CNS
SF-539 CNS = system: SF-539 CNS
SK-MEL-2 melanoma = system: SK-MEL-2 melanoma
SK-MEL-28 melanoma = system: SK-MEL-28 melanoma
SK-MEL-5 melanoma = system: SK-MEL-5 melanoma
SK-OV-3 ovarian = system: SK-OV-3 ovarian
SN12C renal = system: SN12C renal
SNB-19 CNS = system: SNB-19 CNS
SNB-75 CNS = system: SNB-75 CNS
SR leukemia = system: SR leukemia
SW-620 colon = system: SW-620 colon
T-47D breast = system: T-47D breast
TK-10 renal = system: TK-10 renal
U251 CNS = system: U251 CNS
UACC-257 melanoma = system: UACC-257 melanoma
UACC-62 melanoma = system: UACC-62 melanoma
UO-31 renal = system: UO-31 renal

## CCN(CC)c1ccc(/C=N/NC(=O)c2ccc(S(N)(=O)=O)cc2)c(O)c1
NCI-H226 lung
  TGI: > 29.6 µM
NCI-H23 lung
  GI50: 1.11 µM
  TGI: > 100 µM
NCI-H460 lung
  GI50: 0.467 µM
  TGI: 6.73 µM
NCI-H522 lung
  GI50: 0.31 µM
  TGI: > 45.3 µM
NCI/ADR-RES ovarian
  GI50: 1.39 µM
  TGI: > 100 µM
OVCAR-3 ovarian
  GI50: 0.137 µM
  TGI: > 100 µM
OVCAR-4 ovarian
  GI50: 0.304 µM
  TGI: > 85.4 µM
OVCAR-5 ovarian
  GI50: 1.64 µM
  TGI: > 84.5 µM
OVCAR-8 ovarian
  GI50: 0.279 µM
  TGI: > 49.6 µM
PC-3 prostate
  GI50: 0.345 µM
  TGI: > 100 µM
RPMI-8226 leukemia
  GI50: 3.64 µM
  TGI: > 100 µM
RXF 393 renal
  GI50: 0.541 µM
  TGI: 8.71 µM
SF-268 CNS
  GI50: 0.22 µM
  TGI: 17.2 µM
SF-295 CNS
  GI50: 0.528 µM
  TGI: 20.5 µM
SF-539 CNS
  GI50: 0.39 µM
  TGI: 7.87 µM
SK-MEL-2 melanoma
  GI50: 2.25 µM
  TGI: 53.1 µM
SK-MEL-28 melanoma
  GI50: 0.352 µM
  TGI: > 64.5 µM
SK-MEL-5 melanoma
  GI50: 0.537 µM
  TGI: > 20.3 µM
SK-OV-3 ovarian
  GI50: 0.394 µM
  TGI: 18.4 µM
SN12C renal
  GI50: 0.638 µM
  TGI: > 64.8 µM
SNB-19 CNS
  GI50: 0.669 µM
  TGI: 29.9 µM
SNB-75 CNS
  GI50: 0.351 µM
SR leukemia
  GI50: 0.0631 µM
SW-620 colon
  GI50: 0.429 µM
  TGI: > 100 µM
T-47D breast
  GI50: 2.03 µM
  TGI: > 100 µM
TK-10 renal
  GI50: 0.373 µM
  TGI: 40.1 µM
U251 CNS
  GI50: 0.159 µM
  TGI: 16.5 µM
UACC-257 melanoma
  GI50: 0.404 µM
  TGI: 5.33 µM
UACC-62 melanoma
  GI50: 0.346 µM
  TGI: 5.14 µM
UO-31 renal
  GI50: 0.399 µM
  TGI: > 100 µM
